Assays:
NR4A1 and VHL = NR4A1 and VHL (Homo sapiens, UniProt P22736+P40337); assay: Co-IP of Flag-NR4A1 and VHL in HEK293T cells; assay type: cell-based; details: 500 nM, 16 h, 0.5 μM MG132
Method: HEK293T cells were transfected with 3 µg Flag-NR4A1 (HG17699-CF; SinoBiological) for 36 h in Opti-MEM (31985062; Thermo Fisher Scientific) medium with 10 µl GeneTran III reagent (GT2211; Biomiga).
HEK293T cells were transfected with Flag-NR4A1 for 36 h, following with treatment of either DMSO or 500 nM […] for 16 h, together with 500 nM MG132 included to prevent protein degradation. Proteins were extracted using RIPA lysis buffer without SDS (150 mM NaCl, 5 mM EDTA, 50 mM Tris, pH 8.0, 0.5% sodium deoxycholate, and 1% NP-40) supplemented with 1% protease inhibitor cocktail (C0001; TargetMol). IP was performed using Anti-FLAG M2 Magnetic Beads (M8823; Sigma-Aldrich) as per the manufacturer’s protocol. The immunoprecipitated samples were eluted with 2× SDS sample buffer and boiled for 5 min at 95°C. The samples were then subjected to denaturation, SDS-PAGE, and immunoblotting analysis.

Yumm1.7 tumors = assay: Yumm1.7 melanoma syngeneic tumor model; assay type: in vivo, mouse; details: Yumm1.7 (low immunogenicity), 1.8 mg/kg
Source text: (§1) 7–9-wk-old C57BL/6J, B6.129S2-Ighm^tm1Cgn/J (002288), B6.129S2-Nr4a1^tm1Jmi/J (NR4A1^−/−, 006187), and NOD-SCID interleukin-2 receptor gamma null (NSG) mice were purchased from Jackson Laboratories. For all studies involving NR-V04 and celastrol, the compounds were formulated in 50% phosal PG, 45% miglyol 810N, and 5% polysorbate 80 and administered via i.p. injection.
(§2) For syngeneic tumor models, 5 × 10^5 cells MC38, Yumm1.7, and Yummer1.7, 1 × 10^5 cells of B16F10 were resuspended in PBS and implanted into 7–9-wk-old mice subcutaneously. For the tumor inhibition experiment, mice were treated with 1.8 mg/kg NR-V04 or 0.75 mg/kg celastrol by i.p. injection twice weekly. For the immune profile experiment, once tumors reached 0.5 cm in diameter, mice were treated with 1.8 mg/kg NR-V04 by i.p. injection twice weekly. For the toxicity experiment, male and female non-tumor-bearing mice were treated with 2 mg/kg NR-V04 for two doses in the first week and 5 mg/kg for another two doses in the second week. Blood samples were taken from the submandibular (facial) vein before each treatment and 42 days later for hematological analysis, and body weight was measured twice per week up to day 42. Mice were euthanized in accordance with the IACUC protocol once the largest tumors reached 2 cm in diameter, and tissues were collected for further analysis.

B16F10 melanoma = B16F10 melanoma syngeneic tumor model; assay type: in vivo, mouse
Source text: as §1, §2

TI-B cells = assay: Immune profile by flow cytometry in Yumm1.7 tumor-bearing mice; assay type: in vivo, mouse; details: Yumm1.7 tumors, 2 doses of 1.8 mg/kg i.p.
Method: as §2
Mouse tumors were excised and ∼200 mg of tumor tissue was enzymatically and mechanically digested using the mouse Tumor Dissociation Kit (Miltenyi Biotec) to obtain a single-cell suspension. […] Flow cytometry was performed on a three laser Cytek Aurora Cytometer (Cytek Biosciences) and analyzed using FlowJo software (BD Biosciences). […]

NR4A1 and VHL, sequence (P22736 whole entry): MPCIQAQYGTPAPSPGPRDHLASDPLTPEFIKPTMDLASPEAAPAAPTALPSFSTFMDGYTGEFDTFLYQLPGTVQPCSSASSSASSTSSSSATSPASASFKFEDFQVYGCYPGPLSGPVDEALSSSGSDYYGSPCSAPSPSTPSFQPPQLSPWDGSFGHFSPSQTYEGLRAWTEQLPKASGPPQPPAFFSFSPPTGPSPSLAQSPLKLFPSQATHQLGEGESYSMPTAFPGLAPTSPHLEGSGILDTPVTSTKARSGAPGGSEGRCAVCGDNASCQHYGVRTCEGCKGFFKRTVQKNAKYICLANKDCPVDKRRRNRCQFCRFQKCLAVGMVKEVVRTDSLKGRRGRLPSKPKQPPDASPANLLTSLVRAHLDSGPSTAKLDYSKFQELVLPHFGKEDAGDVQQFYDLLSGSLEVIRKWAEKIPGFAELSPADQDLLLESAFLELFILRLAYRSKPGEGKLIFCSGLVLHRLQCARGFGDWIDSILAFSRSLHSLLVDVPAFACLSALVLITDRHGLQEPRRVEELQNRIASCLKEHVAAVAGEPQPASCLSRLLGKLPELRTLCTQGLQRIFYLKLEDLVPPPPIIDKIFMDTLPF
NR4A1 and VHL, sequence (P40337 whole entry): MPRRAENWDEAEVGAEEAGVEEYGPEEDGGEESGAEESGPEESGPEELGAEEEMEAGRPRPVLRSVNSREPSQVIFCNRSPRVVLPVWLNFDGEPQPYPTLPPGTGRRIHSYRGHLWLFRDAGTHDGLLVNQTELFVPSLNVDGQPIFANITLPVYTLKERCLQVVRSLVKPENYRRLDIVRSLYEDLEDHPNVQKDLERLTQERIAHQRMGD
NR4A1 and VHL, sequence (Q15369 whole entry partner): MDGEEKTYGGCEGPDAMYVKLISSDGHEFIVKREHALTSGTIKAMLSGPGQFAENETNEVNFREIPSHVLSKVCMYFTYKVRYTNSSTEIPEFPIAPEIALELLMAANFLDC
NR4A1 and VHL, sequence (Q15370 whole entry partner): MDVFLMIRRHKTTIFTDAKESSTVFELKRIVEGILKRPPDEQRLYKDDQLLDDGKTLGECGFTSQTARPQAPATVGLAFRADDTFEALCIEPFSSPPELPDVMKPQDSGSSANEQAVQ

For CC1=C(O)C(=O)C=C2C1=CC=C1[C@@]2(C)CC[C@@]2(C)[C@@H]3C[C@](C)(C(=O)NCCOCCOCCOCCOCC(=O)N[C@H](C(=O)N4C[C@H](O)C[C@H]4C(=O)N[C@@H](C)c4ccc(-c5scnc5C)cc4)C(C)(C)C)CC[C@]3(C)CC[C@]12C [NR-V04], the Co-IP complex formation (NR4A1 and VHL) was “complex formation between NR4A1 and VHL”, the tumor growth (Yumm1.7 tumors) was “no tumor inhibitory effect” and the tumor growth (B16F10 melanoma; B16F10 in B6.129S2-Ighm^tm1Cgn/J mice that lack mature B cells) was “unable to inhibit tumor growth”. The tumor growth (B16F10 melanoma; B16F10 in NR4A1^−/− mice, 1.8 mg/kg i.p.) was “failed to inhibit B16F10”, the tumor growth (B16F10 melanoma; B16F10 in NSG mice, 1.8 mg/kg i.p.) was “failed to inhibit tumor growth” and the tumor growth (B16F10 melanoma; B16F10 in WT mice, 1.8 mg/kg NR-V04 or 0.75 mg/kg celastrol i.p. twice a week from day 7) was “effectively inhibited tumor growth”. The TI-B cells (TI-B cells) was “significant increase in the TI-B cells”.
